Measurements: patent US20260055097A9, “NRF2 PROTEIN DEGRADERS” (Ganymede Oncology, Inc., priority 2022, published 2026)

What was measured:
[1] = test system: A549; assay: Cancer cell viability, A549 (CellTiter-Glo); type: cell-based; settings: Homo sapiens, 72 h, A549 cells, 3 days, read-out: Cellular IC50 (μM) A549
Method in brief: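 A549 and/or LK-2 lung carcinoma cells seeded overnight (20 K/mL A549; 35 K/mL LK-2), then exposed to compound for 3 days. Viability read as CellTiter-Glo luminescence after 15 min lysis; data fitted to curves.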

[2] = test system: various cancer cell lines; assay: Cancer cell testing, inhibitory activity in various cancer cell lines (CellTiter-Glo, 72 hours); type: cell-based
Protocol: The inhibitory activity of representative Compounds of the Disclosure was tested in various cancer cell lines according to the following protocol.
Cells were harvested from flasks into cell culture media and cell numbers were counted. Cells were then diluted with culture medium to the desired density, and 40 μL of cell suspension were added into each well of a 384-well cell culture plate (Corning, #3764). Plates were covered with lids and placed at room temperature for 30 minutes without shaking, and then transferred into a 37° C. 5% CO2 incubator.
Cpd. Nos. 30 and 34 were dissolved in DMSO to form a 10 mM stock solution. Paclitaxel as the control compound was dissolved in DMSO to form a 0.33 mM stock solution. 45 μL of stock solution was transferred to a 384 pp-plate and 3-fold, 10-point dilutions were performed by transferring 15 μL of compound into 30 μL of DMSO using a TECAN (EVO200) liquid handler. Plates were spun at room temperature at 1,000 RPM for 1 minute, and shaken at a plate shaker for 2 minutes. […] of diluted compound were transferred from compound source plate into the cell plate. After compound treatment for 72 hours, CTG detection was performed for compound treatment plates as described in the “Detection” section.
CellTiter Glo reagents were thawed and equilibrated to room temperature before the experiment. Plates were removed from incubators and equilibrated at room temperature for 15 minutes. 40 μL of CellTiter-Glo reagent was added to each well to be detected at 1:1 to culture medium. Then, plates were placed at room temperature for 30 min followed by reading on Ensight.
Inhibition activity was calculated following the formula below:
[formula] • HC: 0.3% DMSO, LC: 1 μM Paclitaxel
IC50S were calculated by fitting the Curve using Xlfit (v5.3.1.3) according to the following equation: […]

[3] = HCC15, HCC-15, LUNG, KEAP1 p.G364C
[4] = HEC59, UTERINE/ENDOMETRIAL, NRF2 p.N329D
[5] = HEC151, UTERINE/ENDOMETRIAL, KEAP1 p.A34S, NRF2 p.L23GfsTer5
[6] = HEC-251, HEC251, UTERINE/ENDOMETRIAL, KEAP1 p.Q227R, NRF2 p.K516T
[7] = HEC-265, UTERINE/ENDOMETRIAL, KEAP1 p.R483C
[8] = HO1U1, HEAD & NECK, NRF2 p.E82D
[9] = Homo sapiens, A549, A549, LUNG, KEAP1 p.G333C
[10] = Homo sapiens, COR-L88, CORL88, LUNG, NRF2 p.Q26P
[11] = Homo sapiens, EBC-1, EBC1, LUNG, NRF2 p.D77V
[12] = Homo sapiens, HCC44, HCC44, UTERINE/ENDOMETRIAL, KEAP1 p.F211C
[13] = Homo sapiens, HCC95, HCC-95, LUNG, no KEAP1/NRF2 mutation listed
[14] = Homo sapiens, HEC-1-A, HEC1A, UTERINE/ENDOMETRIAL, KEAP1 p.Y33C, NRF2 G31R
[15] = Homo sapiens, HEC-1B, HEC1B, UTERINE/ENDOMETRIAL, NRF2 p.G31R
[16] = Homo sapiens, KYSE-70, KYSE70, ESOPHAGEAL, NRF2 p.W24C
[17] = Homo sapiens, KYSE-180, KYSE180, ESOPHAGEAL, NRF2 p.P278Q
[18] = Homo sapiens, KYSE-520, KYSE520, ESOPHAGEAL, NRF2 p.T80I
[19] = Homo sapiens, MES-SA, MESSA, UTERINE/ENDOMETRIAL, NRF2 p.E79K
[20] = Homo sapiens, MRC5, MRC-5, NORMAL LUNG FIBROBLAST
[21] = Homo sapiens, NCI-H23, NCI-H23, LUNG, KEAP1 p.Q193H
[22] = Homo sapiens, NCI-H358, NCI-H358, LUNG, no KEAP1/NRF2 mutation listed
[23] = Homo sapiens, NCI-H460, NCI-H460, LUNG, KEAP1 p.D236H
[24] = Homo sapiens, NCI-H1792, NCI-H1792, LUNG, KEAP1 p.G462W
[25] = Homo sapiens, NCI-H1944, NCI-H1944, LUNG, KEAP1 p.R320L
[26] = Homo sapiens, NCI-H2030, NCI-H2030, LUNG, KEAP1 p.V568F
[27] = Homo sapiens, NCI-H2122, NCI-H2122, LUNG, KEAP1 p.A170_R204del
[28] = Homo sapiens, NCI-H2126, NCI-H2126, LUNG, KEAP1 p.R320L
[29] = Homo sapiens, NCI-H2228, NCI-H2228, LUNG, NRF2 p.G31A
[30] = Homo sapiens, RL95-2, RL95-2, UTERINE/ENDOMETRIAL, KEAP1 p.R116W
[31] = Homo sapiens, SHP77, SHP-77, LUNG, KEAP1 p.D294Y
[32] = Homo sapiens, UMC-11, UMC11, LUNG, KEAP1 p.G571A
[33] = JHOC-5, UTERINE/ENDOMETRIAL, KEAP1 p.R483H
[34] = MORCPR, LUNG, KEAP1 p.K551SfsTer44
[35] = NCI-H322, NCI-H322, LUNG, KEAP1 p.R460S
[36] = NCI-H1435, NCI-H1435, LUNG, KEAP1 p.R413L
[37] = NCI-H1688, NCI-H1688, LUNG, KEAP1 p.G511S
[38] = NCI-H2066, NCI-H2066, LUNG, KEAP1 p.P361L
[39] = NCI-H2110, NCI-H2110, LUNG, KEAP1 p.G429C
[40] = NCI-H2172, NCI-H2172, LUNG, KEAP1 p.G430C
[41] = OE21, OE21, ESOPHAGEAL, NRF2 p.D318H
[42] = RERF-LC-Sq1, RERFLCSQ1, LUNG, NRF2 p.D29H
[43] = RMUG-S, UTERINE/ENDOMETRIAL, KEAP1 p.G603V
[44] = SW579, SW579, HEAD & NECK, NRF2 p.D77Y

SMILES: Cc1sc(NC(=O)Cc2ccc(F)c(OCCOCCNc3ccc4c(c3)CN(C3CCC(=O)NC3=O)C4=O)c2)nc1-c1ccc2c(c1)CCN2C(=O)c1cncn1C (centres unmarked) [Cpd. No. 30, 2-(3-(2-(2-((2-(2,6-dioxopiperidin-3-yl)-1-oxoisoindolin-5-yl)amino)ethoxy)ethoxy)-4-fluorophenyl)-N-(5-methyl-4-(1-(1-methyl-1H-imidazole-5-carbonyl)indolin-5-yl)thiazol-2-yl)acetamide]
- IC50 [1]: 0.01 µM
- IC50 [2, 3]: 0.0041 µM
- IC50 [2, 4]: 0.0028 µM
- IC50 [2, 5]: 0.0048 µM
- IC50 [2, 6]: < 0.0015 µM
- IC50 [2, 7]: 0.0087 µM
- IC50 [2, 8]: 0.0128 µM
- IC50 [2, 9]: 0.0043 µM
- IC50 [2, 10]: < 0.0015 µM
- IC50 [2, 11]: 0.0113 µM
- IC50 [2, 12]: 0.397 µM
- IC50 [2, 13]: 0.302 µM
- IC50 [2, 14]: 0.0029 µM
- IC50 [2, 15]: 0.0319 µM
- IC50 [2, 16]: 0.0088 µM
- IC50 [2, 17]: 0.004 µM
- IC50 [2, 18]: 0.0017 µM
- IC50 [2, 19]: 0.0047 µM
- IC50 [2, 20]: 0.0125 µM
- IC50 [2, 21]: 0.126 µM
- IC50 [2, 22]: 0.0116 µM
- IC50 [2, 23]: 15.5 µM
- IC50 [2, 24]: 0.0065 µM
- IC50 [2, 25]: 0.0252 µM
- IC50 [2, 26]: 0.169 µM
- IC50 [2, 27]: 0.0549 µM
- IC50 [2, 28]: 0.0989 µM
- IC50 [2, 29]: 0.0126 µM
- IC50 [2, 30]: 0.0028 µM
- IC50 [2, 31]: 0.0296 µM
- IC50 [2, 32]: 0.0058 µM
- IC50 [2, 33]: 0.0115 µM
- IC50 ([2]; LK-2, LUNG, NRF2 p.E79K): < 0.0015 µM
- IC50 [2, 34]: 0.0034 µM
- IC50 [2, 35]: 0.0039 µM
- IC50 ([2]; NCI-H920, LUNG, KEAP1 p.G603V): 0.191 µM
- IC50 [2, 36]: 0.038 µM
- IC50 [2, 37]: < 0.002 µM
- IC50 [2, 38]: 0.0044 µM
- IC50 [2, 39]: 0.0051 µM
- IC50 [2, 40]: 0.0059 µM
- IC50 [2, 41]: 0.156 µM
- IC50 [2, 42]: 0.0126 µM
- IC50 [2, 43]: 0.0215 µM
- IC50 ([2]; SNU2535, LUNG, NRF2 p.D29H): 0.0089 µM
- IC50 [2, 44]: 0.0067 µM

SMILES: Cc1sc(NC(=O)Cc2cccc(OCCOCCNc3cccc4c3C(=O)N(C3CCC(=O)NC3=O)C4=O)c2)nc1-c1ccc2c(c1)CCN2C(=O)C1CC1 (centres unmarked) [Cpd. No. 34, N-(4-(1-(cyclopropanecarbonyl)indolin-5-yl)-5-methylthiazol-2-yl)-2-(3-(2-(2-((2-(2,6-dioxopiperidin-3-yl)-1,3-dioxoisoindolin-4-yl)amino)ethoxy)ethoxy)phenyl) acetamide]
- IC50 [1]: 0.06 µM
- IC50 [2, 3]: 0.0301 µM
- IC50 [2, 4]: 0.0204 µM
- IC50 [2, 5]: 0.0867 µM
- IC50 [2, 6]: 0.0106 µM
- IC50 [2, 7]: 0.0667 µM
- IC50 [2, 8]: 0.0548 µM
- IC50 [2, 9]: 0.0206 µM
- IC50 [2, 10]: 0.0044 µM
- IC50 [2, 11]: 0.152 µM
- IC50 [2, 12]: > 30 µM
- IC50 [2, 13]: > 30 µM
- IC50 [2, 14]: 0.0203 µM
- IC50 [2, 15]: > 30 µM
- IC50 [2, 16]: 0.0336 µM
- IC50 [2, 17]: 0.0458 µM
- IC50 [2, 18]: 0.0132 µM
- IC50 [2, 19]: 0.0351 µM
- IC50 [2, 20]: 0.0354 µM
- IC50 [2, 21]: > 30 µM
- IC50 [2, 22]: 0.0449 µM
- IC50 [2, 23]: > 30 µM
- IC50 [2, 24]: 0.0417 µM
- IC50 [2, 25]: 0.107 µM
- IC50 [2, 26]: 0.224 µM
- IC50 [2, 27]: > 30 µM
- IC50 [2, 28]: > 30 µM
- IC50 [2, 29]: 0.0574 µM
- IC50 [2, 30]: 0.0209 µM
- IC50 [2, 31]: 0.0225 µM
- IC50 [2, 32]: 0.0122 µM
- IC50 [2, 33]: 0.0542 µM
- IC50 ([2]; LK-2, LUNG, NRF2 p.E79K): 0.0094 µM
- IC50 [2, 34]: 0.0332 µM
- IC50 [2, 35]: 0.0239 µM
- IC50 ([2]; NCI-H920, LUNG, KEAP1 p.G603V): > 30 µM
- IC50 [2, 36]: 0.15 µM
- IC50 [2, 37]: 0.013 µM
- IC50 [2, 38]: 0.0159 µM
- IC50 [2, 39]: 0.0421 µM
- IC50 [2, 40]: 0.0142 µM
- IC50 [2, 41]: > 30 µM
- IC50 [2, 42]: 0.0856 µM
- IC50 [2, 43]: 0.0181 µM
- IC50 ([2]; SNU2535, LUNG, NRF2 p.D29H): > 30 µM
- IC50 [2, 44]: 0.0731 µM
